Experimental data as given in patent publication US12227488B2, “Small molecule degraders of Helios and methods of use” (DANA-FARBER CANCER INSTITUTE, INC., priority 2018, dated 2025).

What was measured:
[1] = target: T1, CRBN and Helios (IKZF2) (Homo sapiens, UniProt Q96SW2+Q9UKS7); test: TR-FRET dimerization assay (CRBN-IKZF2 ternary complex formation); assay type: binding; details: n=1
T1 construct: His (N); Strep (N)
Outline: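 Compound-induced IKZF2 recruitment to CRBN was read as the 520/490 nm TR-FRET ratio after 15 min at rt. The mix held biotinylated IKZF2, BODIPY-labeled CRBN bound to DDB1 lacking the BPB propeller, tracer Tb-streptavidin and compound titrations; n=1, from ≥3 technical replicates per well.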

[2] = test system: IKZF2; test: Cellular degradation assay, eGFP-IKZF2Δ fusion with mCherry reporter in Flp-In 293 cells; assay type: cell-based; details: 5 h incubation, n=1
Outline: (§1)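 DC50,5 h derived by variable-slope nonlinear fit of the per-well ratio of GFP-positive to mCherry-positive cells, imaged after 5 h compound exposure at 0.5% DMSO.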

[3] = target: T2, IKZF1 (Homo sapiens, UniProt Q13422); test: Cellular degradation assay, eGFP-IKZF1Δ fusion with mCherry reporter in Flp-In 293 cells; assay type: cell-based; details: 5 h incubation, n=1
T2 construct: expressed in transfected cells; host or cells: Flp-In 293
Outline: as §1

[4] = target: T3, SALL4 ZNF1-2 (Homo sapiens, UniProt Q96SW2+Q9UJQ4); test: Cellular degradation assay, eGFP-SALL4 ZnF1-2 fusion with mCherry reporter in Flp-In 293 cells; assay type: cell-based; details: 5 h incubation, n=1
T3 construct: IKZF1Δ, IKZF2Δ, GSPT1 and SALL4 ZnF1-2 were subcloned; expressed in transfected cells; host or cells: Flp-In 293
Method: IKZF1Δ, IKZF2Δ, GSPT1 and SALL4 ZnF1-2 were subcloned into mammalian pcDNA5/FRT Vector (Ampicillin and Hygromycin B resistant) modified to contain MCS-eGFP-P2A-mCherry. Stable cell lines expressing eGFP-protein fusion and mCherry reporter were generated using Flp-In™ 293 system. Plasmid (0.3 μg) and pOG44 (4.7 μg) DNA were preincubated in 100 μL of Opti-MEM® I (Gibco®, Life Technologies™) media containing 0.05 mg/mL Lipofectamine® 2000 (Invitrogen™) for 20 min and added to Flp-In™ 293 cells containing 1.9 ml of DMEM media (Gibco®, Life Technologies™) per well in a 6-well plate format (Falcon, 353046). Cells were propagated after 48 h and transferred into a 10 cm^2 plate (Corning, 430165) in DMEM media containing 50 μg/mL of Hygromycin B (REF 10687010, Invitrogen™) as a selection marker. Following 2-3 passage cycle, FACS (FACSAria™ II, BD) was used to enrich for cells expressing eGFP and mCherry. Cells stably expressing the IKZF1Δ, IKZF2Δ, GSPT1 or SALL4 Znf1-2 GFP fusions with mCherry reporter were seeded at 30-50% confluency in 384-well plates with 50 μL FluoroBrite™ DMEM media (Thermo Fisher Scientific, A18967) containing 10% FBS per well a day before compound treatment. Compound titrations were dispensed using a D300e Digital Dispenser (HP), normalized to 0.5% DMSO, and incubated with cells for 5 hours. The assay plate was imaged immediately using an Acumen® High Content Imager (TTP Labtech) with 488 nm and 561 nm lasers in […] grid per well format.
The resulting images were analyzed using CellProfiler™. A series of image analysis steps (‘image analysis pipeline’) was constructed. First, the red and green channels were aligned and cropped to target the middle of each well (to avoid analysis of heavily clumped cells at the edges), and a background illumination function was calculated for both red and green channels of each well individually and subtracted to correct for illumination variations across the 384-well plate from various sources of error. An additional step was then applied to the green channel to suppress the analysis of large auto fluorescent artifacts and enhance the analysis of cell specific fluorescence by way of selecting for objects under a given size, 30 A.U., and with a given shape, speckles. mCherry-positive cells were then identified in the red channel filtering for objects between 8-60 pixels in diameter and using intensity to distinguish between clumped objects. The green channel was then segmented into GFP positive and negative areas and objects were labeled as GFP positive if at least 40% of it overlapped with a GFP positive area. The fraction of GFP-positive cells/mCherry-positive cells in each well was then calculated, and the green and red images were rescaled for visualization.

[5] = target: GSPT1 (Homo sapiens, UniProt P15170+Q96SW2); test: Cellular degradation assay, eGFP-GSPT1 fusion with mCherry reporter in Flp-In 293 cells; assay type: cell-based; design: expressed in transfected cells; host or cells: Flp-In 293; details: 5 h incubation, n=1
Outline: as §1

[6] = compound concentration 6.6667E−05
[7] = compound concentration 6.6667E−06
[8] = compound concentration 6.6667E−07 (667 nM)
[9] = compound concentration 2.00E−05
[10] = compound concentration 2.00E−06
[11] = compound concentration 2.00E−07

T2 sequence (Q13422 83-213 isoform Q13422-7 limits assumed): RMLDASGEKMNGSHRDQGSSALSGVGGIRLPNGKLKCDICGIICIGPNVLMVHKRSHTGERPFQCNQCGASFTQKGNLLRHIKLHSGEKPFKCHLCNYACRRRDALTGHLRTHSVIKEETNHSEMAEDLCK
T2 sequence (Q96SW2 whole entry partner, the tested form may be a part): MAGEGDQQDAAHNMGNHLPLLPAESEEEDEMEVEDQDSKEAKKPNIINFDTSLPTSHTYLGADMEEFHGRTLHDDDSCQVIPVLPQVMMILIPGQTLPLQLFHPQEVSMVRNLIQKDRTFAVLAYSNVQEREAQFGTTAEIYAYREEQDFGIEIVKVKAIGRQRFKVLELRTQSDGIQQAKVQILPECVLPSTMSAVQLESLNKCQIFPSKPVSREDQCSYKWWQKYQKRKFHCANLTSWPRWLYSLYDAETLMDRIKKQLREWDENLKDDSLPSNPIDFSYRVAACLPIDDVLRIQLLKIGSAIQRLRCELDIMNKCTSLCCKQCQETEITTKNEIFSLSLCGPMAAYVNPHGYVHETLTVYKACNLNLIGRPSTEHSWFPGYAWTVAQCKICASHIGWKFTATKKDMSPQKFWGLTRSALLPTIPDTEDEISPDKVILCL
T2 sequence (Q16531 2-1140 partner limits assumed): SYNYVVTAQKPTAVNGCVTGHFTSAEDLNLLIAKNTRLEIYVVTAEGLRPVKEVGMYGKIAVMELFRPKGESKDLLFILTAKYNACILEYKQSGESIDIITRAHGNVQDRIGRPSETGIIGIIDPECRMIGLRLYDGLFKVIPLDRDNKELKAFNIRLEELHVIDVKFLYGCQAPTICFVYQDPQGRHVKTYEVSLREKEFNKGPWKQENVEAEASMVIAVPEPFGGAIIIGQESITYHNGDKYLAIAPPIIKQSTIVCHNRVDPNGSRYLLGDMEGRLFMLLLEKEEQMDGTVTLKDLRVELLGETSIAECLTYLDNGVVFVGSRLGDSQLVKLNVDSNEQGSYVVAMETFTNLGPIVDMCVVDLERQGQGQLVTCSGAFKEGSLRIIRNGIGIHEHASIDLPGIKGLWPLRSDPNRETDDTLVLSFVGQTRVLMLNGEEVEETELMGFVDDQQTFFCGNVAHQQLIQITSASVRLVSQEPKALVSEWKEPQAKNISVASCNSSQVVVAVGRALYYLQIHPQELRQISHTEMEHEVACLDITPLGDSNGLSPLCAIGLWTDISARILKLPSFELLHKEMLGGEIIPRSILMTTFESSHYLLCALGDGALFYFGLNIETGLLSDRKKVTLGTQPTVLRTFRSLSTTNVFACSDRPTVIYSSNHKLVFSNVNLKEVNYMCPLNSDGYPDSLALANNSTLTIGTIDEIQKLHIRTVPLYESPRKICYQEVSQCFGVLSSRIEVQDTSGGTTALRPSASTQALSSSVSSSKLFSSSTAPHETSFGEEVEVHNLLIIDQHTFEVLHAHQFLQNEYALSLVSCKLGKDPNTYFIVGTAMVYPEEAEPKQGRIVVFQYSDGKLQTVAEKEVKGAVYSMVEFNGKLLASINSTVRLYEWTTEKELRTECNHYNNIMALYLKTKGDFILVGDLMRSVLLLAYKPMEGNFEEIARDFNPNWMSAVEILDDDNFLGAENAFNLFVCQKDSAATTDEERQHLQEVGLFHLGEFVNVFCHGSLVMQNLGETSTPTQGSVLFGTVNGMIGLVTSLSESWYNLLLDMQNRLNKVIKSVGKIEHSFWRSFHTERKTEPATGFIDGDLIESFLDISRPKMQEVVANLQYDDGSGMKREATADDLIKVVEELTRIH
T1 sequence (Q96SW2 whole entry): as the sequence (Q96SW2 whole entry partner, the tested form may be a part) above
T1 sequence (Q9UKS7 whole entry): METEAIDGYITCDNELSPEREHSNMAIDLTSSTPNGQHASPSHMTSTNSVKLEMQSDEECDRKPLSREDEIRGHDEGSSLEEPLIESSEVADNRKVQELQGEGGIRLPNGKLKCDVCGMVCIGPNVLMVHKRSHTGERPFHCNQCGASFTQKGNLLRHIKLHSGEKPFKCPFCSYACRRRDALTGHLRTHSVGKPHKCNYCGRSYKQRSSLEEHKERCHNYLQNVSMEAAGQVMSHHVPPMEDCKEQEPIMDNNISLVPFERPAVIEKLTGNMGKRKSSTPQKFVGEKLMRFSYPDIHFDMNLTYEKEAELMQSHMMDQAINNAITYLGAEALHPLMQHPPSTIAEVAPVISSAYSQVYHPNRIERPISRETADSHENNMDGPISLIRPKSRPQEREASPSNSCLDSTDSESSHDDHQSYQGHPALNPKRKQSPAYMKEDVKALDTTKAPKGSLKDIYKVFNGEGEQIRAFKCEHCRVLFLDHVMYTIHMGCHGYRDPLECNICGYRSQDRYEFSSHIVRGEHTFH
T3 sequence (Q9UJQ4 378-438 limits assumed): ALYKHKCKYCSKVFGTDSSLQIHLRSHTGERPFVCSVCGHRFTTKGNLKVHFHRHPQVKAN
T3 sequence (Q96SW2 whole entry, the tested form may be a part): as the sequence (Q96SW2 whole entry partner, the tested form may be a part) above
T3 sequence (Q16531 whole entry partner, the tested form may be a part): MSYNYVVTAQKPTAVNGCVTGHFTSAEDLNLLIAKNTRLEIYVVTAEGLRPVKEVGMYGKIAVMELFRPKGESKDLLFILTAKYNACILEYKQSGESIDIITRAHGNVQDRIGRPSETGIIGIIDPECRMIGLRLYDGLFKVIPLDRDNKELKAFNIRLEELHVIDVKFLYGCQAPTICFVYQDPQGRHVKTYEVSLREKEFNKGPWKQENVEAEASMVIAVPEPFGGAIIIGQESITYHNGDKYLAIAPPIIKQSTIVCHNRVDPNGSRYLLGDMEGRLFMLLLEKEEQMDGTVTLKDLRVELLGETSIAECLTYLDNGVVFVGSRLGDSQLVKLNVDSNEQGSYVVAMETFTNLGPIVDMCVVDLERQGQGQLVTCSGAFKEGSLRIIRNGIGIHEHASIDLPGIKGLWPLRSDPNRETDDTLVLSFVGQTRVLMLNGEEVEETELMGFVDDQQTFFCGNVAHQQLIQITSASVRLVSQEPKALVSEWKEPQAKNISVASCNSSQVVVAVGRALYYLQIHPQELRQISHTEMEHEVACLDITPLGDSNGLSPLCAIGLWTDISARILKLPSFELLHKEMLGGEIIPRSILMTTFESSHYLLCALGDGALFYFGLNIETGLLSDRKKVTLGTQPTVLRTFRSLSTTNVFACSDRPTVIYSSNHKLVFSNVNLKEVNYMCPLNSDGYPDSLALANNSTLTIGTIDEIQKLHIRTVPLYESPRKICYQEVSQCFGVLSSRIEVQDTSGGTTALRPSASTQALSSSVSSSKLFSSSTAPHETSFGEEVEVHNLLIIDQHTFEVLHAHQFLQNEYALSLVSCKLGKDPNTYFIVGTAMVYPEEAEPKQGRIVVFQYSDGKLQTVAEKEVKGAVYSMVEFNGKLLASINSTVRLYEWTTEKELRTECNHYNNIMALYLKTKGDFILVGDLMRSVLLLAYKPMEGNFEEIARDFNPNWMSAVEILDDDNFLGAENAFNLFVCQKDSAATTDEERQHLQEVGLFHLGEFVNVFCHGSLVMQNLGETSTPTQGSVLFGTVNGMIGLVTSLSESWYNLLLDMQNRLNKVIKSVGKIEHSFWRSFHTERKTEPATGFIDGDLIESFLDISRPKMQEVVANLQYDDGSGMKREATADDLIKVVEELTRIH
GSPT1, sequence (P15170 whole entry, the tested form may be a part): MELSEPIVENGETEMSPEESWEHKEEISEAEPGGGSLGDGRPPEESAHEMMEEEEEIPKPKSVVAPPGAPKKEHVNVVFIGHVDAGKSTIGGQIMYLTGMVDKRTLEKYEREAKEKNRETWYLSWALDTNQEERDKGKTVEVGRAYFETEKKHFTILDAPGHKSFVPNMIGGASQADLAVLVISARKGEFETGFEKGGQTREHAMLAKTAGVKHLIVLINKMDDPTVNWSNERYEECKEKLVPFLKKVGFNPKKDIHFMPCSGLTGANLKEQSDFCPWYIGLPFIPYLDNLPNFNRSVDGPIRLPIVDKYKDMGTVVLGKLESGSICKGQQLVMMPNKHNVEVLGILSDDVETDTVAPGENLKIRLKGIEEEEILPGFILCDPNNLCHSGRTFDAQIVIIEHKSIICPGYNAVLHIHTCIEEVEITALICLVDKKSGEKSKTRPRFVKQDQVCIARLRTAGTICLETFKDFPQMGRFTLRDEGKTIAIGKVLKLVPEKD
GSPT1, sequence (Q96SW2 whole entry, the tested form may be a part): as the sequence (Q96SW2 whole entry partner, the tested form may be a part) above
GSPT1, sequence (Q16531 whole entry partner, the tested form may be a part): as the sequence (Q16531 whole entry partner, the tested form may be a part) above

SMILES	TR-FRET-IKZF2 (Normalized to CC-885) [1, 6]	TR-FRET-IKZF2 (Normalized to CC-885) [1, 7]	TR-FRET-IKZF2 (Normalized to CC-885) [1, 8]	IKZF2 GFP/RFP Relative Abundance [2, 9]	IKZF2 GFP/RFP Relative Abundance [2, 10]	IKZF2 GFP/RFP Relative Abundance [2, 11]	IKZF1 GFP/RFP Relative Abundance [3, 9]	IKZF1 GFP/RFP Relative Abundance [3, 10]	IKZF1 GFP/RFP Relative Abundance [3, 11]	SALL4 ZNF1-2 GFP/RFP Relative Abundance [4, 9]	SALL4 ZNF1-2 GFP/RFP Relative Abundance [4, 10]	SALL4 ZNF1-2 GFP/RFP Relative Abundance [4, 11]	GSPT1 GFP/RFP Relative Abundance [5, 9]	GSPT1 GFP/RFP Relative Abundance [5, 10]	GSPT1 GFP/RFP Relative Abundance [5, 11]
O=C1CCC(N2C(=O)C=C(Nc3cccc(-c4nnn[nH]4)c3)C2=O)C(=O)N1 (stereo not drawn) [Compound 23, 3-(3-((3-(1H-tetrazol-5-yl)phenyl)amino)-2,5-dioxo-2,5-dihydro-1H-pyrrol-1-yl)piperidine-2,6-dione]	0.326	0.259	0.196	1.013	1.016	1.015	0.866	1.044	0.756	0.922	0.979	0.981	0.976	0.936	0.953
Cc1ccc(NC2=CC(=O)N(C3CCC(=O)NC3=O)C2=O)cc1C (stereo not drawn) [Compound 24, 3-(3-((3,4-dimethylphenyl)amino)-2,5-dioxo-2,5-dihydro-1H-pyrrol-1-yl)piperidine-2,6-dione]	0.391	0.344	0.282	0.959	0.954	1.038	0.236	0.342	0.369	0.937	0.941	0.942	1.153	1.221	1.218
O=C1CCC(N2C(=O)C=C(Nc3ccc(Cl)cc3)C2=O)C(=O)N1 (stereo not drawn) [Compound 25, 3-(3-((4-chlorophenyl)amino)-2,5-dioxo-2,5-dihydro-1H-pyrrol-1-yl)piperidine-2,6-dione]	0.339	0.282	0.230	0.966	0.978	0.955	0.258	0.298	0.341	0.831	0.897	0.887	1.019	1.233	1.201
O=C1CCC(N2C(=O)C=C(Nc3cccc(Cl)c3)C2=O)C(=O)N1 (stereo not drawn) [Compound 26, 3-(3-((3-chlorophenyl)amino)-2,5-dioxo-2,5-dihydro-1H-pyrrol-1-yl)piperidine-2,6-dione]	0.365	0.293	0.228	0.913	0.929	0.981	0.290	0.381	0.478	0.855	0.869	0.787	0.952	1.036	1.107
